The record followed here is patent US12492186B2, “Bicyclic heterocyclic compounds useful as IRAK4 inhibitors” (BRISTOL-MYERS SQUIBB COMPANY, priority 2019, dated 2025).

The test system of one experiment is Human whole blood. The experiment can be described thus: IRAK4 Whole Blood Assay (IL-6 levels after stimulation with TLR2 agonist lipoteichoic acid). The class given is cell-based. The following applies: 10 μg/mL lipoteichoic acid, 5 hours. Here is the method: Human whole blood containing the anti-coagulant ACD-A was plated in 384-well plate (25 μL/well) and incubated with compounds for 60 minutes at 37° C. in a 5% CO2 incubator. The blood was stimulated with a TLR2 agonist, 10 μg/mL final concentration of lipoteichoic acid (Invivogen, San Diego, CA) in 25 μL RPMI (Gibco) for 5 hours in a 5% CO2 incubator. At the end of the incubation, plates were centrifuged at 2300 rpm for 5 minutes. Supernatants were harvested and analyzed for IL-6 levels by Flow Cytometry beads assay (BD Biosciences, San Jose, CA).

For another experiment, the target named is IRAK4 (Homo sapiens (Human), UniProt Q9NWZ3). Briefly: IRAK4 Inhibition Assay. The class given is biochemical. The following applies: ATP 500 μM; IRAK4 0.6 nM; 60 min room temperature; Caliper LABCHIP 3000. How it is done: The assays were performed in U-bottom 384-well plates. The final assay volume was 30 μL prepared from 15 μL additions of enzyme and substrates (fluoresceinated peptide and ATP) and test compounds in assay buffer (20 mM HEPES pH 7.2, 10 mM MgCl2, 0.015% Brij 35 and 4 mM DTT). The reaction was initiated by the combination of IRAK4 with substrates and test compounds. The reaction mixture was incubated at room temperature for 60 min. and terminated by adding 45 μL of 35 mM EDTA to each sample. The reaction mixture was analyzed on the Caliper LABCHIP® 3000 (Caliper, Hopkinton, MA) by electrophoretic separation of the fluorescent substrate and phosphorylated product. Inhibition data were calculated by comparison to no enzyme control reactions for 100% inhibition and vehicle-only reactions for 0% inhibition. The final concentrations of reagents in the assays are ATP, 500 μM; FL-IPTSPITTTYFFFKKK peptide 1.5 μM; IRAK4, 0.6 nM; and DMSO, 1.6%.
Sequence of IRAK4 (Q9NWZ3 whole entry, species assumed): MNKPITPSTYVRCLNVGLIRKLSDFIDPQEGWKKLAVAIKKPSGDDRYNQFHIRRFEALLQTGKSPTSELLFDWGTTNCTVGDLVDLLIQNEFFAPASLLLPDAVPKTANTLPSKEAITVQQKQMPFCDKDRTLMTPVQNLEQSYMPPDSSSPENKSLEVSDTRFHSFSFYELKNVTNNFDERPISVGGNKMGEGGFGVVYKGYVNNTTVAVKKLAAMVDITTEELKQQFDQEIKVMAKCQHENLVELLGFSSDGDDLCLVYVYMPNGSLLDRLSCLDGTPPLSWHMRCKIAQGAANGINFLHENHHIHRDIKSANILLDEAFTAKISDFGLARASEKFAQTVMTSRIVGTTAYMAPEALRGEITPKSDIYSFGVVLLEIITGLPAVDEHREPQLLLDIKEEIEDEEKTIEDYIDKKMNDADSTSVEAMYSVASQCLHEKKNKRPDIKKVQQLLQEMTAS

Molecules are shown by their SMILES.

A word on the EC50: it is the concentration giving half of the maximal effect. A high value points to weaker potency. The term IC50 denotes the point on the concentration scale where inhibition reaches its midpoint. With `CC(C)Nc1c(C(=O)N[C@H]2CC[C@H](O)CC2)cnc2ccc(-c3cn[nH]c3)cc12` [Example 11, N-((1r,4r)-4-hydroxycyclohexyl)-4-(isopropylamino)-6-(1H-pyrazol-4-yl)quinoline-3-carboxamide], in the experiment with Human whole blood, it took 1.67 µM to reach a half-maximal effect (EC50). Further, at IRAK4, the IC50 came to 0.0095 µM.
For the compound `CC(C)Nc1c(C(=O)NC2CCN(C(=O)N3CCOCC3)CC2)cnc2ccc(-c3cn[nH]c3)cc12` [Example 82, 4-(isopropylamino)-N-(1-(morpholine-4-carbonyl)piperidin-4-yl)-6-(1H-pyrazol-4-yl) quinoline-3-carboxamide], the EC50 in the experiment with Human whole blood is 0.455 µM. For the same compound, the half-maximal inhibitory concentration (IC50) at IRAK4 worked out at 0.009 µM.
As for `CC(=O)N1CCC(n2cc(-c3cnc4ccc(-c5cn[nH]c5)cc4c3NC(C)C)nn2)CC1` [Example 135, 1-(4-(4-(4-(isopropylamino)-6-(1H-pyrazol-4-yl)quinolin-3-yl)-1H-1,2,3-triazol-1-yl)piperidin-1-yl)ethan-1-one], a half-maximal effect in the experiment on Human whole blood (EC50) was put at 0.603 µM. Further, the half-maximal inhibitory concentration (IC50) at IRAK4 amounted to 0.0031 µM.
As for `CC(C)CCn1cc(-c2cnc3ccc(-c4cn[nH]c4)cc3c2NC(C)C)nn1` [Example 129, 3-(1-isopentyl-1H-1,2,3-triazol-4-yl)-N-isopropyl-6-(1H-pyrazol-4-yl)quinolin-4-amine], the EC50 in the experiment with Human whole blood was found to be 1.43 µM. On IRAK4, the half-inhibitory concentration (IC50) was found to be 0.0012 µM.
The corresponding values for `CC(C)CCNC(=O)c1cnc2ccc(-c3cn[nH]c3)cc2c1NC(C)C` [Example 15, N-isopentyl-4-(isopropylamino)-6-(1H-pyrazol-4-yl)quinoline-3-carboxamide] are 0.675 µM and 0.0077 µM.
The corresponding values for `CC(C)Nc1c(-c2cn(C3CCNCC3)nn2)cnc2ccc(-c3cn[nH]c3)cc12` [Example 133, N-isopropyl-3-(1-(piperidin-4-yl)-1H-1,2,3-triazol-4-yl)-6-(1H-pyrazol-4-yl)quinolin-4-amine] are 0.779 µM and 0.0029 µM.
Regarding `COC(=O)N[C@H]1C[C@H](NC(=O)c2cnc3ccc(-c4cn[nH]c4)cc3c2NC(C)C)C1` [Example 47, methyl ((1r,3r)-3-(4-(isopropylamino)-6-(1H-pyrazol-4-yl)quinoline-3-carboxamido)cyclobutyl)carbamate], the EC50 with Human whole blood is 0.868 µM. On IRAK4, the half-inhibitory concentration (IC50) amounted to 0.0091 µM.
The corresponding values for `CC(C)Nc1c(-c2cn(CCCO)nn2)cnc2ccc(-c3cn[nH]c3)cc12` [Example 131, 3-(4-(4-(isopropylamino)-6-(1H-pyrazol-4-yl)quinolin-3-yl)-1H-1,2,3-triazol-1-yl)propan-1-ol] are 0.713 µM and 0.0078 µM.
In the same order, the values of `CC(C)Nc1c(C(=O)NCCC2CCCN2)cnc2ccc(-c3cn[nH]c3)cc12` (centres unmarked) [Example 96, 4-(isopropylamino)-6-(1H-pyrazol-4-yl)-N-(2-(pyrrolidin-2-yl)ethyl)quinoline-3-carboxamide] are 1.28 µM and 0.0114 µM.
The compound `O=C(NCCC1CCS(=O)(=O)CC1)c1cnc2ccc(-c3cn[nH]c3)cc2c1NC1CC1` [Example 120, 4-(cyclopropylamino)-N-(2-(1,1-dioxidotetrahydro-2H-thiopyran-4-yl)ethyl)-6-(1H-pyrazol-4-yl)quinoline-3-carboxamide] came in with an EC50 with Human whole blood of 6.04 µM. In addition, at IRAK4, the half-maximal inhibitory concentration (IC50) came to 0.0087 µM.
Turning to `CC(C)Nc1c(C(=O)NC[C@@H](F)C(C)(C)O)cnc2ccc(-c3cn[nH]c3)cc12` [Example 1, (R)—N-(2-fluoro-3-hydroxy-3-methylbutyl)-4-(isopropylamino)-6-(1H-pyrazol-4-yl) quinoline-3-carboxamide], in the experiment with Human whole blood, the EC50 came to 0.501 µM. Also, the concentration for half-maximal inhibition (IC50) on IRAK4 is 0.0026 µM.
Take `CC(=O)N[C@H]1CC[C@H](NC(=O)c2cnc3ccc(-c4cn[nH]c4)cc3c2NC(C)C)CC1` [Example 24, N-((1r,4r)-4-acetamidocyclohexyl)-4-(isopropylamino)-6-(1H-pyrazol-4-yl)quinoline-3-carboxamide]: in the experiment with Human whole blood, a half-maximal response (EC50) required 0.584 µM. Further, the IC50 at IRAK4 came out at 0.0077 µM.
With `CC(O)CCNC(=O)c1cnc2ccc(-c3cn[nH]c3)cc2c1NCC(F)F` (centres unmarked) [Example 65, 4-((2,2-difluoroethyl)amino)-N-(3-hydroxybutyl)-6-(1H-pyrazol-4-yl)quinoline-3-carboxamide], the concentration giving a half-maximal response (EC50) with Human whole blood turned out to be 2.2 µM.
Still for that read-out and setting: to `CC(C)Nc1c(-c2cc(C3CCCCN3)no2)cnc2ccc(-c3cn[nH]c3)cc12` (centres unmarked) [Example 128, N-isopropyl-3-(3-(piperidin-2-yl)isoxazol-5-yl)-6-(1H-pyrazol-4-yl)quinolin-4-amine] belongs 0.758 µM.
Turning to `CC(C)(O)CCNC(=O)c1cnc2ccc(-c3cn[nH]c3)cc2c1NCC(F)F` [Example 62, 4-((2,2-difluoroethyl)amino)-N-(3-hydroxy-3-methylbutyl)-6-(1H-pyrazol-4-yl)quinoline-3-carboxamide], the half-maximal inhibitory concentration (IC50) at IRAK4 was determined as 0.0223 µM.
Same read-out and setting: next, `CC(C)Nc1c(C(=O)NC(C)(C)C(=O)N2CCOCC2)cnc2ccc(-c3cn[nH]c3)cc12` [Example 91, 4-(isopropylamino)-N-(2-methyl-1-morpholino-1-oxopropan-2-yl)-6-(1H-pyrazol-4-yl) quinoline-3-carboxamide]: 1.81 µM; `COC(=O)NC1CC(NC(=O)c2cnc3ccc(-c4cn[nH]c4)cc3c2NC2CC(F)(F)C2)C1` (centres unmarked) [Example 58, methyl ((1r,3r)-3-(4-((3,3-difluorocyclobutyl)amino)-6-(1H-pyrazol-4-yl)quinoline-3-carboxamido)cyclobutyl)carbamate]: 0.0299 µM; `CC(C)(O)[C@H](F)CNC(=O)c1cnc2ccc(-c3cn[nH]c3)cc2c1Nc1cnn(CC(F)F)c1` [Example 33, (R)-4-((1-(2,2-difluoroethyl)-1H-pyrazol-4-yl)amino)-N-(2-fluoro-3-hydroxy-3-methylbutyl)-6-(1H-pyrazol-4-yl)quinoline-3-carboxamide]: 0.157 µM.
Still for that read-out and setting: to `CC(C)Nc1c(C(=O)N[C@H]2C[C@@H](O)C2)cnc2ccc(-c3cn[nH]c3)cc12` [Example 39, N-((1s,3s)-3-hydroxycyclobutyl)-4-(isopropylamino)-6-(1H-pyrazol-4-yl)quinoline-3-carboxamide] belongs 0.0386 µM; to `CNc1c(C(N)=O)cnc2ccc(-c3cn[nH]c3)cc12` [Example 108, 4-(methylamino)-6-(1H-pyrazol-4-yl)quinoline-3-carboxamide], 0.554 µM; to `CC(C)(O)CCNC(=O)c1cnc2ccc(-c3cn[nH]c3)cc2c1NC1CC(F)(F)C1` [Example 52, 4-((3,3-difluorocyclobutyl)amino)-N-(3-hydroxy-3-methylbutyl)-6-(1H-pyrazol-4-yl)quinoline-3-carboxamide], 0.0239 µM.
Same read-out and setting: to `Cc1cc2ncc(C(=O)NCCC(C)(C)O)c(NC(C)C)c2cc1-c1cncs1` [Example 61, N-(3-hydroxy-3-methylbutyl)-4-(isopropylamino)-7-methyl-6-(thiazol-5-yl)quinoline-3-carboxamide] belongs 0.231 µM.
Turning to `CC(C)Nc1c(C(=O)NC2CCN(S(=O)(=O)CCC(F)(F)F)CC2)cnc2ccc(-c3cn[nH]c3)cc12` [Example 89, 4-(isopropylamino)-6-(1H-pyrazol-4-yl)-N-(1-((3,3,3-trifluoropropyl)sulfonyl)piperidin-4-yl)quinoline-3-carboxamide], the IC50 on IRAK4 was found to be 0.0328 µM.
On the same count and under the same terms, to `CC(C)(O)[C@H](F)CNC(=O)c1cnc2ccc(-c3cncs3)cc2c1Nc1cnn(CC(F)F)c1` [Example 31, (R)-4-((1-(2,2-difluoroethyl)-1H-pyrazol-4-yl)amino)-N-(2-fluoro-3-hydroxy-3-methylbutyl)-6-(thiazol-5-yl)quinoline-3-carboxamide] belongs 0.43 µM; to `CC(C)Nc1c(C(=O)NCCC2CC2)cnc2ccc(-c3cncc(C#N)c3)nc12` [Example 151, 6-(5-cyanopyridin-3-yl)-N-(2-cyclopropylethyl)-4-(isopropylamino)-1,5-naphthyridine-3-carboxamide], 1.28 µM.
As to `CC(C)Nc1c(C(=O)N[C@H](C)CCO)cnc2ccc(-c3cn[nH]c3)cc12` [Example 13, (R)—N-(4-hydroxybutan-2-yl)-4-(isopropylamino)-6-(1H-pyrazol-4-yl)quinoline-3-carboxamide], the IC50 at IRAK4 is 0.0883 µM.
Regarding `CCNc1c(C(=O)NCCC(C)(C)O)cnc2ccc(-c3cncs3)cc12` [Example 37, 4-(ethylamino)-N-(3-hydroxy-3-methylbutyl)-6-(thiazol-5-yl)quinoline-3-carboxamide], the IC50 on IRAK4 stood at 0.11 µM.
Same read-out and setting: to `CC(C)Nc1c(C(=O)NC(CCO)C2CC2)cnc2ccc(-c3cn[nH]c3)cc12` (centres unmarked) [Example 12, N-(1-cyclopropyl-3-hydroxypropyl)-4-(isopropylamino)-6-(1H-pyrazol-4-yl)quinoline-3-carboxamide] belongs 0.295 µM.
Still for that read-out and setting: to `CC(C)Nc1c(C(=O)NCC2(C)NC(=O)NC2=O)cnc2ccc(-c3cn[nH]c3)cc12` (centres unmarked) [Example 105, 4-(isopropylamino)-N-((4-methyl-2,5-dioxoimidazolidin-4-yl)methyl)-6-(1H-pyrazol-4-yl)quinoline-3-carboxamide] belongs 0.338 µM.
